According to patent US9169254B2, “Spiroimidazolone derivative” (Chugai Seiyaku Kabushiki Kaisha, priority 2009, dated 2015):

The molecules below were run against T1, human PTH1 receptor (Homo sapiens, UniProt Q03431) (assay: In vitro cAMP signal activity in HKRK-B7 cells (LLC-PK1 cells overexpressing the human PTH1 receptor)). Details: HKRK-B7 cells; compound at 1×10^−3 M; […]; 0.1 µM.
T1 sequence (Q03431 27-593): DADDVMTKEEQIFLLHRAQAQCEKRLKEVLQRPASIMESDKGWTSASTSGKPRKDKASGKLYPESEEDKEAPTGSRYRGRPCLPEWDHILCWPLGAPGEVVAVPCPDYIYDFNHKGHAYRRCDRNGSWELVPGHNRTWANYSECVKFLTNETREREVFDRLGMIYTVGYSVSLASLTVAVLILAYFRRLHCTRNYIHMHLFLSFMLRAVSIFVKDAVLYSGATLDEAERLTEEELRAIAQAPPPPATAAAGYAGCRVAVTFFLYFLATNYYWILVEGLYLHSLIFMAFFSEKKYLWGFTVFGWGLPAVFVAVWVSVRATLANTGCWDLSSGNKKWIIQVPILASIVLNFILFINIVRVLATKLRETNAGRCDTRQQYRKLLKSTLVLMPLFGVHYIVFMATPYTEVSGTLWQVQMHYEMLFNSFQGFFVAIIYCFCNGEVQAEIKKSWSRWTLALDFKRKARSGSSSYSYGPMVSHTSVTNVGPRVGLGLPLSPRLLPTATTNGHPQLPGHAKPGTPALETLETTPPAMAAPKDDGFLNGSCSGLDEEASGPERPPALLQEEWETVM
Format: cell-based
`Cc1cc(N(C)c2nccs2)cc(C)c1CCS(=O)(=O)N1CCC2(CC1)N=C([C@H]1CC[C@H](C)CC1)NC2=O` [Compound 475, 8-{2-[2,6-Dimethyl-4-(methyl-thiazol-2-yl-amino)-phenyl]-ethanesulfonyl}-2-(4-methyl-cyclohexyl)-1,3,8-triaza-spiro[4.5]dec-1-en-4-one] was tested, and the “cAMP production activity (%)” value was 84%.

Same assay, conditions: HKRK-B7 cells; compound at 1×10^−3 M; cAMP produced as percentage of that produced by hPTH(1-34) at 100 nM
`Cc1cc(C(=O)N(C)C)ccc1CCS(=O)(=O)N1CCC2(CC1)N=C(c1ccc(OC(F)(F)C(F)F)cc1)NC2=O` [Compound 94, 3,N,N-trimethyl-4-(2-{4-oxo-2-[4-(1,1,2,2-tetrafluoro-ethoxy)-phenyl]-1,3,8-triaza-spiro[4.5]dec-1-ene-8-sulfonyl}-ethyl)-benzamide] was tested, and the “cAMP production activity (%)” value was 62%. With `Cc1cc(C(=O)N2CC[C@@H](N)C2)cc(C)c1/C=C/S(=O)(=O)N1CCC2(CC1)N=C(c1cccc(OC(F)(F)F)c1)NC2=O` [Compound 404, 8-{(E)-2-[4-((R)-3-amino-pyrrolidine-1-carbonyl)-2,6-dimethyl-phenyl]-ethenesulfonyl}-2-(3-trifluoromethoxy-phenyl)-1,3,8-triaza-spiro[4.5]dec-1-en-4-one] the “cAMP production activity (%)” value was 88%. With `Cc1cc(C(=O)N2CCCC2)ccc1/C=C/S(=O)(=O)N1CCC2(CC1)N=C(c1cccc(C(F)(F)F)c1)NC2=O` [Compound 212, 8-{(E)-2-[2-methyl-4-(pyrrolidine-1-carbonyl)-phenyl]-ethenesulfonyl}-2-(3-trifluoromethyl-phenyl)-1,3,8-triaza-spiro[4.5]dec-1-en-4-one] the “cAMP production activity (%)” value was 59%. In the case of `Cc1cc(C(=O)N(C)C)ccc1CCS(=O)(=O)N1CCC2(CC1)N=C(c1cccc(F)c1C)NC2=O` [Compound 114, 4-{2-[2-(3-fluoro-2-methyl-phenyl)-4-oxo-1,3,8-triaza-spiro[4.5]dec-1-ene-8-sulfonyl]-ethyl}-3,N,N-trimethyl-benzamide], the “cAMP production activity (%)” value is reported as 105%. For `Cc1cc2ccc1CCS(=O)(=O)N1CCC3(CC1)N=C(NC3=O)c1cc(cc(C(F)(F)F)c1)OCCCCCCCCCN(C)C2=O` [Compound 1415], the “cAMP production activity (%)” value was 49%. In the case of `COc1cccc(OC)c1C1=NC2(CCN(S(=O)(=O)CCc3ccc(C(=O)N(C)C)cc3C)CC2)C(=O)N1` [Compound 79, 4-{2-[2-(2,6-dimethoxy-phenyl)-4-oxo-1,3,8-triaza-spiro[4.5]dec-1-ene-8-sulfonyl]-ethyl}-3,N,N-trimethyl-benzamide], the “cAMP production activity (%)” value is reported as 8.2%. For `CCCCCCCCCC1=NC2(CCN(S(=O)(=O)/C=C/c3c(C)cc(N(C)C(N)=O)cc3C)CC2)C(=O)N1` [Compound 692, 1-{3,5-Dimethyl-4-[(E)-2-(2-nonyl-4-oxo-1,3,8-triaza-spiro[4.5]dec-1-ene-8-sulfonyl)-vinyl]-phenyl}-1-methyl-urea], the “cAMP production activity (%)” value was 101%. For `Cc1cc(C(=O)N2CC[C@H](N(C)C)C2)ccc1CCS(=O)(=O)N1CCC2(CC1)N=C(c1cccc(C(F)(F)F)c1)NC2=O` [Compound 372, 8-{2-[4-((S)-3-dimethylamino-pyrrolidine-1-carbonyl)-2-methyl-phenyl]-ethanesulfonyl}-2-(3-trifluoromethyl-phenyl)-1,3,8-triaza-spiro[4.5]dec-1-en-4-one], the “cAMP production activity (%)” value was 51%. `CC(=O)N(C)c1ccc(C)c(CCS(=O)(=O)N2CCC3(CC2)N=C(c2cccc(OC(F)(F)F)c2)NC3=O)c1` [Compound 265, N-methyl-N-(4-methyl-3-{2-[4-oxo-2-(3-trifluoromethoxy-phenyl)-1,3,8-triaza-spiro[4.5]dec-1-ene-8-sulfonyl]-ethyl}-phenyl)-acetamide] was tested, and the “cAMP production activity (%)” value was 55%. `CCCCCCCCCC1=NC2(CCN(S(=O)(=O)CCc3c(C)cc(C(=O)N4CCCC4)cc3C)CC2)C(=O)N1` [Compound 980, 8-{2-[2,6-Dimethyl-4-(pyrrolidine-1-carbonyl)-phenyl]-ethanesulfonyl}-2-nonyl-1,3,8-triaza-spiro[4.5]dec-1-en-4-one] was tested, and the “cAMP production activity (%)” value was 85%. With `Cc1ccccc1CCS(=O)(=O)N1CCC2(CC1)N=C(C1CCCCC1)NC2=S` [Compound 469, 2-Cyclohexyl-8-(2-o-tolyl-ethanesulfonyl)-1,3,8-triaza-spiro[4.5]dec-1-ene-4-thione] the “cAMP production activity (%)” value was 47%. `CC(=O)N(C)c1cc(C)c(CCS(=O)(=O)N2CCC3(CC2)N=C(C2CCC(CCC(F)(F)F)CC2)NC3=O)c(C)c1` (stereo not shown) [Compound 759, N-[3,5-dimethyl-4-(2-{4-oxo-2-[4-(3,3,3-trifluoro-propyl)-cyclohexyl]-1,3,8-triaza-spiro[4.5]dec-1-ene-8-sulfonyl}-ethyl)-phenyl]-N-methyl-acetamide] was tested, and the “cAMP production activity (%)” value was 79%. For `CN(C)C(=O)c1ccc(/C=C/S(=O)(=O)N2CCC3(CC2)N=C(c2cccc(OC(F)(F)F)c2)NC3=O)c(F)c1` [Compound 233, 3-fluoro-N,N-dimethyl-4-{(E)-2-[4-oxo-2-(3-trifluoromethoxy-phenyl)-1,3,8-triaza-spiro[4.5]dec-1-ene-8-sulfonyl]-vinyl}-benzamide], the “cAMP production activity (%)” value was 13%. `Cc1cc(C(=O)N2CCC(O)(CF)CC2)cc(C)c1/C=C/S(=O)(=O)N1CCC2(CC1)N=C(c1cccc(C(C)(F)F)c1)NC2=O` [Compound 1267, 2-[3-(1,1-difluoro-ethyl)-phenyl]-8-{(E)-2-[4-(4-fluoromethyl-4-hydroxy-piperidine-1-carbonyl)-2,6-dimethyl-phenyl]-ethenesulfonyl}-1,3,8-triaza-spiro[4.5]dec-1-en-4-one] was tested, and the “cAMP production activity (%)” value was 74%. `Cc1cc2[nH]ccc2cc1CCS(=O)(=O)N1CCC2(CC1)N=C(C1CCCCC1)NC2=O` [Compound 837, 2-cyclohexyl-8-[2-(6-methyl-1H-indol-5-yl)-ethanesulfonyl]-1,3,8-triaza-spiro[4.5]dec-1-en-4-one] was tested, and the “cAMP production activity (%)” value was 66%. `O=C1NC(c2cccc(OC(F)(F)F)c2)=NC12CCN(S(=O)(=O)CCc1cccc3c1ccn3C[C@H](O)CO)CC2` [Compound 746, 8-{2-[1-((S)-2,3-dihydroxy-propyl)-1H-indol-4-yl]-ethanesulfonyl}-2-(3-trifluoromethoxy-phenyl)-1,3,8-triaza-spiro[4.5]dec-1-en-4-one] was tested, and the “cAMP production activity (%)” value was 120%. In the case of `O=C(/C=C/c1ccccc1)N1CCCC(C2=NC3(CCN(S(=O)(=O)CCc4cccc5ccccc45)CC3)C(=O)N2)C1` (stereo not shown) [Compound 441, 8-(2-Naphthalen-1-yl-ethanesulfonyl)-2-{1-[(E)-(3-phenyl-acryloyl)]-piperidin-3-yl}-1,3,8-triaza-spiro[4.5]dec-1-en-4-one], the “cAMP production activity (%)” value is reported as 24%. `Cc1cc(C(=O)N2CCC(O)(CF)CC2)cc(C)c1/C=C/S(=O)(=O)N1CCC2(CC1)N=C(c1ccc3c(c1)OC(F)(F)O3)NC2=O` [Compound 1280, 2-(2,2-difluoro-benzo[1,3]dioxol-5-yl)-8-{(E)-2-[4-(4-fluoromethyl-4-hydroxy-piperidine-1-carbonyl)-2,6-dimethyl-phenyl]-ethenesulfonyl}-1,3,8-triaza-spiro[4.5]dec-1-en-4-one] was tested, and the “cAMP production activity (%)” value was 74%. For `Cc1cc(N(C)C(=O)OC(C)(C)C)cc(C)c1CCS(=O)(=O)N1CCC2(CC1)N=C(C(C)(F)F)NC2=O` [Compound 1034, (4-{2-[2-(1,1-difluoro-ethyl)-4-oxo-1,3,8-triaza-spiro[4.5]dec-1-ene-8-sulfonyl]-ethyl}-3,5-dimethyl-phenyl)-methyl-carbamic acid tert-butyl ester], the “cAMP production activity (%)” value was 54%. In the case of `[2H]C([2H])([2H])C([2H])([2H])C([2H])([2H])C([2H])([2H])Oc1cc(C2=NC3(CCN(S(=O)(=O)/C=C/c4c(C)cc(C(=O)N5CCC(C)(O)CC5)cc4C)CC3)C(=O)N2)ccc1Cl` [Compound 1231, 2-(3-[1,1,2,2,3,3,4,4,4-^2H9]butoxy-4-chloro-phenyl)-8-{(E)-2-[4-(4-hydroxy-4-methyl-piperidine-1-carbonyl)-2,6-dimethyl-phenyl]-ethenesulfonyl}-1,3,8-triaza-spiro[4.5]dec-1-en-4-one], the “cAMP production activity (%)” value is reported as 88%. For `Cc1cc(C(=O)N2CCC(C)(O)CC2)cc(C)c1/C=C/S(=O)(=O)N1CCC2(CC1)N=C(c1cccc(CC#N)c1)NC2=O` [Compound 1187, [3-(8-{(E)-2-[4-(4-hydroxy-4-methyl-piperidine-1-carbonyl)-2,6-dimethyl-phenyl]-ethenesulfonyl}-4-oxo-1,3,8-triaza-spiro[4.5]dec-1-en-2-yl)-phenyl]-acetonitrile], the “cAMP production activity (%)” value was 75%. With `CN(C)C(=O)n1ccc2c(CCS(=O)(=O)N3CCC4(CC3)N=C(C3CCCCC3)NC4=O)cccc21` [Compound 310, 4-[2-(2-cyclohexyl-4-oxo-1,3,8-triaza-spiro[4.5]dec-1-ene-8-sulfonyl)-ethyl]-indole-1-carboxylic acid dimethylamide] the “cAMP production activity (%)” value was 76%. With `CCCCCCCCCC1=NC2(CCN(S(=O)(=O)CCc3ccc(N(CCO)S(C)(=O)=O)cc3C)CC2)C(=O)N1` [Compound 720, N-(2-Hydroxy-ethyl)-N-{3-methyl-4-[2-(2-nonyl-4-oxo-1,3,8-triaza-spiro[4.5]dec-1-ene-8-sulfonyl)-ethyl]-phenyl}-methanesulfonamide] the “cAMP production activity (%)” value was 82%. In the case of `Cc1c(O)cccc1/C=C/S(=O)(=O)N1CCC2(CC1)N=C(c1cccc(OC(F)(F)F)c1)NC2=O` [Compound 226, 8-[(E)-2-(3-Hydroxy-2-methyl-phenyl)-ethenesulfonyl]-2-(3-trifluoromethoxy-phenyl)-1,3,8-triaza-spiro[4.5]dec-1-en-4-one], the “cAMP production activity (%)” value is reported as 83%.
